Consider 38 compounds from ChEMBL document CHEMBL1151855, “Synthesis of novel 1-alkyl-8-substituted-3-(3-methoxypropyl) xanthines as putative A(2B) receptor antagonists” (Bioorg Med Chem, 2009).

One may read the Ki as the equilibrium dissociation constant of an inhibitor or competing ligand from its target. A low value points to higher affinity.

Test [1] deals with T1, Adenosine receptor A2b (Homo sapiens) (UniProt P29275).
T1 sequence (whole entry): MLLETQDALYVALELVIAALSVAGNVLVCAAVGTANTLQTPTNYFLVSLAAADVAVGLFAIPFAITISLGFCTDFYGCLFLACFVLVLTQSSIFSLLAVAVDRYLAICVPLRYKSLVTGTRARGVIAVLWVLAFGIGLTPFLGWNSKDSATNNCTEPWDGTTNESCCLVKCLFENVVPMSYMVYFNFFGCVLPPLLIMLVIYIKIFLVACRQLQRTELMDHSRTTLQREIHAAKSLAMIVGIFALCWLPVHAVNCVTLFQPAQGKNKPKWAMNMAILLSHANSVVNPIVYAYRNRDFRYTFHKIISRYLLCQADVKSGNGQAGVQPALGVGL
The experiment in a line: Displacement of [3H]DPCPX from human adenosine A2b receptor expressed in HEK293 cells at 1 uM. It counts as cell-based. In general terms: Displacement assays read how much labelled ligand stays bound in the presence of the test substance.

The target of test [2] is T2, Adenosine receptor A2a (Homo sapiens, UniProt P29274). The experiment in a line: Displacement of [3H]ZM241385 from human adenosine A2a receptor expressed in human HeLa cells at 1 uM. It counts as cell-based.
T2 sequence (P29274 whole entry): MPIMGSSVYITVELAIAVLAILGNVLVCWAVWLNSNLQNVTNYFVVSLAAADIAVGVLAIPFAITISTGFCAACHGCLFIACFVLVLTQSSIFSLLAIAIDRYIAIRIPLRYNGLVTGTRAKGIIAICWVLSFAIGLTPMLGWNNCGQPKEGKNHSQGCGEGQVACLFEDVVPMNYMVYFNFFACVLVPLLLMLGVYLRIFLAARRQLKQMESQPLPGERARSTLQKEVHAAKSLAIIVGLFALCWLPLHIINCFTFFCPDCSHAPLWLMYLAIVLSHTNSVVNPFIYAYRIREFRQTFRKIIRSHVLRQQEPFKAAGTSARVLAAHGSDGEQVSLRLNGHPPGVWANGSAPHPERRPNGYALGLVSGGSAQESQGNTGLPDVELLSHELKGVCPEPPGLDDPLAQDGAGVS
Test [3] deals with T2, Adenosine receptor A2a. The experiment in a line: Binding affinity to human adenosine A2a receptor expressed in human HeLa cells. It counts as cell-based.
Another test addresses T3, Adenosine receptor A2b (Homo sapiens, UniProt P29275).
T3 sequence (P29275 whole entry): T1 sequence (whole entry)
The experiment in a line: Binding affinity to human adenosine A2b receptor expressed in HEK293 cells. It counts as cell-based.

A further test addresses T4, Adenosine receptor A1 (Rattus norvegicus, UniProt P25099).
T4 sequence (P25099 whole entry): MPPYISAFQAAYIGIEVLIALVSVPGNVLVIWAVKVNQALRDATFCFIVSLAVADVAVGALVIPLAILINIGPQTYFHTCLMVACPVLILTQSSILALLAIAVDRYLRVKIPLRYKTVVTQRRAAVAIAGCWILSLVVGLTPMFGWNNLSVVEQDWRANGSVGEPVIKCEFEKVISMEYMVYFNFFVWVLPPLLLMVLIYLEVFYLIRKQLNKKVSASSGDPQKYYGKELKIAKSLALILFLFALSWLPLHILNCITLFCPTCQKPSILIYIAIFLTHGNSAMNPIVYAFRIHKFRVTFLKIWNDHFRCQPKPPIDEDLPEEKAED
The experiment in a line: Binding affinity to rat cortex adenosine A1 receptor.

For another test, the target named is T5, Adenosine receptor A3 (Homo sapiens, UniProt P0DMS8).
T5 sequence (P0DMS8 whole entry): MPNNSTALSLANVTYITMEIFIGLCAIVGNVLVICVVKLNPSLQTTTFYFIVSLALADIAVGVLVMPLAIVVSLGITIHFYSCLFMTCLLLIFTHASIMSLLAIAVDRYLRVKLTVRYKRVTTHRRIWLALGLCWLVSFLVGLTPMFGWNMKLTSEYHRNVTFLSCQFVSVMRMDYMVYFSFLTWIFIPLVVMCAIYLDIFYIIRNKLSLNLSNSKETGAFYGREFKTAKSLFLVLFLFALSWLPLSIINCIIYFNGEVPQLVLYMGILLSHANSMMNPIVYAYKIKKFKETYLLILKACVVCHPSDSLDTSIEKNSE
As to the kind of experiment: Binding affinity to human adenosine A3 receptor expressed in human HeLa cells. It counts as cell-based.

Test [4] concerns the target T6, Adenosine receptor A3 (Homo sapiens) (UniProt P0DMS8).
T6 sequence (whole entry): T5 sequence (P0DMS8 whole entry)
As to the kind of experiment: Displacement of [3H]NECA from human adenosine A3 receptor expressed in human HeLa cells at 1 uM. It counts as cell-based.

The target in test [5] is T7, Adenosine receptor A1 (Rattus norvegicus) (UniProt P25099).
T7 sequence (whole entry): T4 sequence (P25099 whole entry)
The experiment in a line: Displacement of [3H]DPCPX from rat cortex adenosine A1 receptor at 1 uM.

Take `CCCn1c(=O)c2[nH]c(C3CCCC3)nc2n(CCCOC)c1=O`: the Activity in test [1] was 62%; at Adenosine receptor A2a [2], 84%.

As to `CCCn1c(=O)c2[nH]c(-c3ccc(-c4ccccc4)cc3)nc2n(CCCOC)c1=O`, the Activity is 66% in test [1] and 14% at Adenosine receptor A2a [2].

As for `CCn1c(=O)c2[nH]c(-c3ccc(OCC(=O)N4CCc5ccccc5C4)cc3)nc2n(CCCOC)c1=O`, the figures for the Ki on Adenosine receptor A2a [3], at Adenosine receptor A2b and on Adenosine receptor A1 were 229 nM, 49 nM and 100 nM, respectively.

Turning to `CCSCCn1c(=O)c2[nH]c(-c3ccccc3)nc2n(CCCOC)c1=O`, the Activity was found to be 41% in test [1] and 8% at Adenosine receptor A2a [2].

On to `CCn1c(=O)c2[nH]c(-c3ccc(OCC(=O)Nc4cccnc4)cc3)nc2n(CCCOC)c1=O`, for which the Ki on Adenosine receptor A2a [3] was 759 nM; on Adenosine receptor A2b it was 33.9 nM; at Adenosine receptor A3, 95.5 nM; at Adenosine receptor A1, 162 nM.

Take `CCCn1c(=O)c2[nH]c(-c3cccs3)nc2n(CCCOC)c1=O`: the Activity in test [1] was 77%; at Adenosine receptor A2a [2], 25%.

As for `CCSCCn1c(=O)c2[nH]c(-c3ccco3)nc2n(CCCOC)c1=O`, the values for the inhibitory constant (Ki) at Adenosine receptor A2a [3] and at Adenosine receptor A2b were 5010 nM and 490 nM, respectively.

`CC[S+]([O-])CCn1c(=O)c2[nH]c(Cc3ccco3)nc2n(CCCOC)c1=O` (configuration not stated): the Activity was 0% in test [1] and 12% at Adenosine receptor A2a [2].

In the case of `CCS(=O)(=O)CCn1c(=O)c2[nH]c(-c3ccccc3)nc2n(CCCOC)c1=O`, the Activity in test [1] turned out to be 0%; at Adenosine receptor A2a [2], 20%.

Consider `CCCn1c(=O)c2[nH]c(-c3ccc[nH]3)nc2n(CCCOC)c1=O`, for which the Ki is 398 nM on Adenosine receptor A2a [3] and 148 nM at Adenosine receptor A2b.

Take `CCn1c(=O)c2[nH]c(-c3ccc(OCC(=O)Nc4ccc(Br)cc4)cc3)nc2n(CCCOC)c1=O`: the inhibition constant Ki is 97.7 nM at Adenosine receptor A2a [3], 2.88 nM at Adenosine receptor A2b, 1290 nM on Adenosine receptor A3 and 100 nM on Adenosine receptor A1.

Consider `CCn1c(=O)c2[nH]c(-c3ccc(OCC(=O)Nc4nc5ccccc5[nH]4)cc3)nc2n(CCCOC)c1=O`, for which the Ki on Adenosine receptor A2a [3] is 204 nM; on Adenosine receptor A2b it was 93.3 nM.

Turning to `CCn1c(=O)c2[nH]c(-c3ccc(OCC(=O)NC4CCCC4)cc3)nc2n(CCCOC)c1=O`, the inhibition constant (Ki) on Adenosine receptor A2a [3] is 95.5 nM; on Adenosine receptor A2b, 77.6 nM.

`CCSCCn1c(=O)c2[nH]c(Cc3ccco3)nc2n(CCCOC)c1=O` showed an inhibitory constant (Ki) on Adenosine receptor A2b of 2000 nM. Besides, the Activity on Adenosine receptor A2a [2] was 1%.

For the compound `COCCCn1c(=O)n(CC(C)C)c(=O)c2[nH]c(-c3ccccc3)nc21`, the results for the Activity (in test [1]; on Adenosine receptor A2a [2]) were 30% and 25%, respectively.

For `CCn1c(=O)c2[nH]c(-c3cccs3)nc2n(CCCOC)c1=O`, the results for the Ki at Adenosine receptor A2a [3] and at Adenosine receptor A2b were 219 nM and 126 nM, respectively.

Take `CCn1c(=O)c2[nH]c(Cc3ccco3)nc2n(CCCOC)c1=O`: the Activity came out at 17% in test [1] and 11% at Adenosine receptor A2a [2].

For `CCn1c(=O)c2[nH]c(-c3ccc(OCC(=O)Nc4ccc(O)cc4)cc3)nc2n(CCCOC)c1=O`, the Ki is 417 nM on Adenosine receptor A2a [3], 15.5 nM on Adenosine receptor A2b and 174 nM at Adenosine receptor A1. The compound further gave an Activity in test [4] of 65%.

`CCn1c(=O)c2[nH]c(-c3ccc(OCC(=O)Nc4ccc(C(C)=O)cc4)cc3)nc2n(CCCOC)c1=O` returned an Activity in test [5] of 68%. In addition, the Ki on Adenosine receptor A2a [3] is 148 nM; at Adenosine receptor A2b it was 11.7 nM; on Adenosine receptor A3, 708 nM.

Turning to `CCCn1c(=O)c2[nH]c(-c3ccccc3)nc2n(CCCOC)c1=O`, the Ki is 339 nM on Adenosine receptor A2a [3] and 324 nM at Adenosine receptor A2b.

Regarding `CCn1c(=O)c2[nH]c(-c3ccc(OCC(=O)Nc4ccc(C#N)cc4)cc3)nc2n(CCCOC)c1=O`, the Ki at Adenosine receptor A2a [3] was 112 nM; at Adenosine receptor A2b, 9.12 nM; at Adenosine receptor A3 it was 398 nM; at Adenosine receptor A1, 676 nM.

As to `CCOCCn1c(=O)c2[nH]c(-c3ccccc3)nc2n(CCCOC)c1=O`, the Activity in test [1] was 21%; on Adenosine receptor A2a [2] it was 51%.

In the case of `CCn1c(=O)c2[nH]c(-c3ccc(OCC(=O)Nc4ccc(N(C)C)cc4)cc3)nc2n(CCCOC)c1=O`, the inhibition constant Ki is 1780 nM at Adenosine receptor A2a [3], 174 nM on Adenosine receptor A2b, 209 nM on Adenosine receptor A3 and 871 nM on Adenosine receptor A1.

On to `CCCn1c(=O)c2[nH]c(CCCc3ccccc3)nc2n(CCCOC)c1=O`, for which the Activity came out at 70% in test [1] and 26% on Adenosine receptor A2a [2].

In the case of `CCn1c(=O)c2[nH]c(-c3ccc(-c4ccccc4)cc3)nc2n(CCCOC)c1=O`, the Ki is 525 nM at Adenosine receptor A2a [3] and 70.8 nM at Adenosine receptor A2b.

Regarding `CCn1c(=O)c2[nH]c(-c3ccco3)nc2n(CCCOC)c1=O`, the inhibition constant (Ki) on Adenosine receptor A2a [3] is 490 nM; at Adenosine receptor A2b, 138 nM.

On to `CC[S+]([O-])CCn1c(=O)c2[nH]c(-c3ccccc3)nc2n(CCCOC)c1=O` (configuration not stated), for which the Activity in test [1] worked out at 11%; on Adenosine receptor A2a [2], 18%.

Take `CCn1c(=O)c2c(nc(-c3ccc(-c4ccccc4)cc3)n2C)n(CCCOC)c1=O`: the Activity in test [1] was determined as 6%; at Adenosine receptor A2a [2], 5%.

For `COCCCn1c(=O)n(CCOC)c(=O)c2[nH]c(-c3ccccc3)nc21`, the Activity is 70% in test [1] and 54% on Adenosine receptor A2a [2].

With `CCS(=O)(=O)CCn1c(=O)c2[nH]c(Cc3ccco3)nc2n(CCCOC)c1=O`, the Activity in test [1] was 15%; on Adenosine receptor A2a [2], 6%.

Take `CCn1c(=O)c2c(nc(-c3ccco3)n2C)n(CCCOC)c1=O`: the Activity in test [1] was determined as 1%; on Adenosine receptor A2a [2], 14%.

Turning to `CCn1c(=O)c2[nH]c(-c3ccc(OCC(=O)Nc4ccccc4)cc3)nc2n(CCCOC)c1=O`, the Ki on Adenosine receptor A2a [3] is 87.1 nM; on Adenosine receptor A2b, 3.02 nM; on Adenosine receptor A3 it was 2510 nM; on Adenosine receptor A1 it was 36.3 nM.

Regarding `CCn1c(=O)c2[nH]c(-c3ccc[nH]3)nc2n(CCCOC)c1=O`, the figures for the Ki on Adenosine receptor A2a [3] and at Adenosine receptor A2b were 209 nM and 85.1 nM, respectively.

Turning to `CCn1c(=O)c2[nH]c(-c3ccccc3)nc2n(CCCOC)c1=O`, the Activity in test [1] worked out at 67%; at Adenosine receptor A2a [2] it was 49%.

As to `CCn1c(=O)c2[nH]c(-c3ccc(OCC(=O)Nc4ccc(F)cc4)cc3)nc2n(CCCOC)c1=O`, the Ki is 56.2 nM on Adenosine receptor A2a [3], 3.02 nM on Adenosine receptor A2b, 955 nM on Adenosine receptor A3 and 20.9 nM on Adenosine receptor A1.

As to `CCn1c(=O)c2[nH]c(-c3ccc(OCC(=O)Nc4ccccn4)cc3)nc2n(CCCOC)c1=O`, the Activity is 2% in test [5] and 69% in test [4]. In addition, the Ki was 170 nM on Adenosine receptor A2a [3] and 15.5 nM at Adenosine receptor A2b.

As to `CCn1c(=O)c2[nH]c(-c3ccc(OCC(=O)Nc4ccon4)cc3)nc2n(CCCOC)c1=O`, the Ki on Adenosine receptor A2a [3] was 214 nM; on Adenosine receptor A2b it was 20.9 nM; on Adenosine receptor A3, 933 nM; at Adenosine receptor A1, 95.5 nM.

On to `CCCCCn1c(=O)c2[nH]c(-c3ccccc3)nc2n(CCCOC)c1=O`, for which the figures for the Activity (in test [1]; on Adenosine receptor A2a [2]) were 49% and 0%, respectively.
